What was measured:
human PBMCs = test: Cytokine profile in human PBMCs ex vivo (ELISA); type: cell-based
Method: In the present ex vivo experiment, peripheral blood mononuclear cells (PBMCs) from six healthy donors were stimulated with free CpG-A, free CpG-B (7909) or ACM-CpG-B at increasing concentration (0.62, 1.25, 2.5 and 5 μM). Levels of IL-6 and IFNα secreted into culture supernatant was measured by ELISA. […] The ability to induce both cytokines was advantageous as they stimulate DCs to mature and B cells to proliferate and produce antibody, respectively.

[1] = test system: classical dendritic cells (cDCs); test: Activation of classical dendritic cells in inguinal lymph nodes after SC injection; type: in vivo, C57BL/6 mice; conditions: 5 μg SC, inguinal lymph nodes two days after
Method: Class B CpG binds endosomal Toll-like receptor 9 (TLR9) to induce several immunological effects, including activation of dendritic cells (DCs), production of pro-inflammatory cytokines and B cell differentiation and antibody secretion. These attributes make class B CpG valuable as a vaccine adjuvant. In this study, C57BL/6 mice were subcutaneously (SC) injected with 5 μg free murine CpG 1826 or ACM-CpG 1826 to compare their relative abilities to activate classical dendritic cells (cDCs). Two days after, inguinal lymph nodes (which drain the site of injection) were harvested to assess DC activation. […] Moreover, ACM polymersomes alone were non-immunogenic and thus enhanced DC activation was due to efficient delivery of CpG to endosomal TLR9.

C57BL/6 splenocytes = test: Cytokine production by splenocytes in vitro (adjuvant activity); type: cell-based, mice; conditions: culture supernatant, approximately 20 h, 0.125-0.5 μM
Method: It is known that CpG can induce cytokine production by BALB/c splenocytes in vitro. In this experiment adjuvant effect of ACM polymersomes with CpG were studied. The experimental procedure included: • 1. Spleens harvested from three C57BL/6 mice • 2. 3 million splenocytes added to each well of 96-well plate in complete RPMI. • 3. The following treatment groups were used: untreated, free CpG, ACM-CpG and empty ACM, which were incubated approximately 20 h at 37° C. 5% C02. • 4. Collection of culture supernatants and measurement of IL-6 and IL-12p70 which are indicators of adjuvant effect. • 5. The following 96-well plate format was used for measurements (ms) carried out in triplicates (Table 1)

C57bl/6 mice = test: Immunization with OVA conjugated or encapsulated ACMs, sera tittering by ELISA (Example 13); type: in vivo; conditions: 4 μg of OVA per injection, sera 21 days after the boost
Method: C57bl/6 mice were immunized with different OVA formulations: PBS (negative control), free OVA with or without Sigma Adjuvant System (SAS), OVA encapsulated ACMs or OVA conjugated ACMs. Balb/c mice were immunized with different HA formulations: PBS (negative control), free HA, HA encapsulated ACMs or HA conjugated ACMs. […] All immunizations were performed with a same final amount of antigen within each trial: 5-10 μg OVA/injection/mouse or 100-200 ng HA/injection/mouse. Final bleeds were collected 42 days after prime. ELISA was then performed to assess titers: OVA or HA were coated onto MaxiSorp plates (1 μg/ml in carbonate buffer) overnight. Plates were blocked using 3% BSA in PBS for 1 h at RT. All sera were diluted at 1:100 and incubated on plates for 1 h at RT. After 3 washes with PBS+0.05% Tween 20, secondary antibody anti-mouse IgG HRP coupled was incubated at 1:10,000 dilution for 1 h, RT (room temperature). After 3 washes with PBS/Tween 20 buffer, TMB substrate was added and reaction was stopped using 1M HCl. Optical densities were quantified at 450 nm.
C57bl/6 mice were immunized with the following formulations: a negative control (PBS), free OVA with or without Sigma Adjuvant System (SAS), BD21 encapsulated OVA and BD21 conjugated OVA. […] 21 days after the boost, sera were collected for tittering by ELISA.

[2] = PBMCs from six healthy donors, 0.62, 1.25, 2.5 and 5 μM

## CpG 7909 [CpG-B]
Human PBMCs; PBMCs from six healthy donors
  CpG concentration at which IL-6 levels saturate: around 1.25 μM
Human PBMCs; [2]
  IFNα production: little to none was detected
  IL-6 secreted into culture supernatant: low to moderate quantities

## CpG ODN1826 [free CpG]
[1]
  CD86 and CD80 activation marker expression on cDC2: significant increase in CD86 and CD80 expression on cDC2
C57BL/6 splenocytes
  IL-6 production: only detected in free CpG- or ACM-CpG-treated splenocytes
  IL-12 (IL-12p70) production: not detected even in neat culture supernatant

B1: Ovalbumin (OVA) (protein, listed as Gallus gallus)
chain: MGSIGAASMEFCFDVFKELKVHHANENIFYCPIAIMSALAMVYLGAKDSTRTQINKVVRFDKLPGFGDSIEAQCGTSVNVHSSLRDILNQITKPNDVYSFSLASRLYAEERYPILPEYLQCVKELYRGGLEPINFQTAADQARELINSWVESQTNGIIRNVLQPSSVDSQTAMVLVNAIVFKGLWEKAFKDEDTQAMPFRVTEQESKPVQMMYQIGLFRVASMASEKMKILELPFASGTMSMLVLLPDEVSGLEQLESIINFEKLTEWTSSNVMEERKIKVYLPRMKMEEKYNLTSVLMAMGITDVFSSSANLSGISSAESLKISQAVHAAHAEINEAGREVVGSAEAGVDAASVSEEFRADHPFLFCIKHIATNAVLFFGRCVSP
C57bl/6 mice
  IgG response / titer against OVA (ELISA): not able to elicit an IgG response

— US20240108720A1, “SOLE USE OF POLYMERSOME ASSOCIATED ADJUVANT FOR STIMULATING AN IMMUNE RESPONSE” (priority 2021, published 2024)
